According to ChEMBL document CHEMBL1201862, “PubChem BioAssay data set” (2004):
The source made the active and inactive calls.

Tests used:
[1] = viability loss in HEK293 kidney cells – cell-based, cherry-picks, set 5, cytotoxicity control, dose response (AID 1053117); assay type: functional
[2] = HGIII-sPLA2 enzyme inhibition potency – biochemical, QFRET, IC50, dose response (AID 743457);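 further: green fluorescence rise as the enzyme cleaves BODIPY PC-A2 in liposomes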
fMet-Leu-Phe receptor = fMet-Leu-Phe receptor (Homo sapiens, UniProt P21462); assay: formyl peptide receptor binders – dose response (AID 519); assay type: functional
[3] = NIH3T3 cell viability loss – ATP luminescence, mouse fibroblasts, counter-screen, dose response (AID 2010); assay type: functional, cell-based;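 further: cells exposed to compound for about 90 hours before reading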
[4] = potency of ADAM10 substrate cleavage blockers – biochemical, QFRET, dose response (AID 743254);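 further: ADAM10 enzyme with the DM2 quenched FRET peptide as substrate; EDANS fluorescence gain as the protease cuts the substrate; inhibitor potency against ADAM10 proteolytic activity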
[5] = Trypanosoma cruzi growth suppression in host cells – NIH3T3 host cells, beta-gal luminescence, confirmation (AID 2044); assay type: functional, cell-based;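 further: intracellular parasites grown in NIH/3T3 mouse fibroblasts as host cells; luminescent beta-galactosidase reporter signal from transgenic T. cruzi replicating inside host cells; inhibitors lower the luminescence signal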
[6] = target: Disintegrin and metalloproteinase domain-containing protein 17 (Homo sapiens, UniProt P78536); assay: inhibition of ADAM17 substrate cleavage – biochemical, quenched FRET substrate, counter-screen for ADAM10 exosite inhibitor project, dose response (AID 743253)
[7] = Counterscreen for inhibitors of Trypanosoma brucei methionyl tRNA synthetase (MetRS): Luminescence-based cell-based high throughput dose response assay to identify compounds that are cytotoxic to Jurkat human T lymphocyte cells.; assay type: functional
[8] = target: T1, Methionyl-tRNA synthetase, putative (Trypanosoma brucei brucei, UniProt Q38C91); assay type: functional, Trypanosoma brucei brucei strain 927/4 GUTat10.1
T1 sequence (Q38C91 whole entry): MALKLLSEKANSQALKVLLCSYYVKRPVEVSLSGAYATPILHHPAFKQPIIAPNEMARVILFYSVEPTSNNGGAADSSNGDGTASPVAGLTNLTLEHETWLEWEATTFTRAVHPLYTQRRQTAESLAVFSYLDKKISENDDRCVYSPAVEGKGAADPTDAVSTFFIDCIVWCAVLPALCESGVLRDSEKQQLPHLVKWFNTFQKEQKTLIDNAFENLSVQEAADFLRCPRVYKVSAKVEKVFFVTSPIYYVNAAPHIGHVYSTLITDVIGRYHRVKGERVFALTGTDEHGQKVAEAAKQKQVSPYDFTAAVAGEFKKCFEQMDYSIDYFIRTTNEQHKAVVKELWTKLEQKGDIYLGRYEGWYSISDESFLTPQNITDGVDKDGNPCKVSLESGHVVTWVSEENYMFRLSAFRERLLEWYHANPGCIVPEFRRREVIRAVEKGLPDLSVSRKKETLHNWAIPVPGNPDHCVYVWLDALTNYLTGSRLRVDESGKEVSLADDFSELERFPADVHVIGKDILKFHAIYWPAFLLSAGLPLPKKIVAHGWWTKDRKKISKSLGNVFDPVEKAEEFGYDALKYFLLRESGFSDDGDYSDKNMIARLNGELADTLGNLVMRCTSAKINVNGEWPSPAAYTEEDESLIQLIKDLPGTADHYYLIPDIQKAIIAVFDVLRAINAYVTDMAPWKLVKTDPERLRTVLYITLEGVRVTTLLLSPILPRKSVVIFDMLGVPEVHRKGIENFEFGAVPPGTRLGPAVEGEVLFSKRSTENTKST

[9] = target: T1, Methionyl-tRNA synthetase, putative; assay type: functional, Trypanosoma brucei brucei strain 927/4 GUTat10.1; remark: listed apart in the source
[10] = viability loss in human hepatoma cells – cell-based, CellTiter-Glo luminescence, cherry-pick, set 2, cytotoxicity control, dose response (AID 743395); assay type: functional
Paired box protein Pax-8 = Paired box protein Pax-8 (Homo sapiens, UniProt Q06710); assay: PAX8 transcriptional activity inhibition in RMG-I – RMG-I cells, luciferase, cherry-pick, dose response (AID 687027); assay type: functional, cell-based;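 further: luciferase reporter driven by Pax8 target thyroperoxidase promoter measured by SteadyGlo luminescence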
BJ = assay: growth inhibition of engineered Ras-driven BJ cells – cell-based, alamar blue fluorescence, cherrypicked samples, dose response (AID 2631); assay type: functional; settings: Homo sapiens;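 further: confirmatory dose-response assay in RAS-dependent BJ fibroblasts engineered with TERT, LT and ST, with cytotoxicity read by fluorescence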
Major prion protein = Major prion protein (Homo sapiens, UniProt P04156); assay type: functional, cell-based
[11] = general mammalian cell viability loss – activator set, cherry-pick, cytotoxicity control for miR-122 modulator project, dose response (AID 720690); assay type: functional, cell-based;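 further: HEK293T human cells scored for general mammalian cytotoxicity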
Caspase-6 = target: T2, Caspase-6 (Homo sapiens, UniProt P55212); assay: inhibition of CASP6 peptide cleavage – biochemical, VEID-R110 fluorescence, cherry-pick, dose response (AID 720632)
T2 sequence (P55212 whole entry): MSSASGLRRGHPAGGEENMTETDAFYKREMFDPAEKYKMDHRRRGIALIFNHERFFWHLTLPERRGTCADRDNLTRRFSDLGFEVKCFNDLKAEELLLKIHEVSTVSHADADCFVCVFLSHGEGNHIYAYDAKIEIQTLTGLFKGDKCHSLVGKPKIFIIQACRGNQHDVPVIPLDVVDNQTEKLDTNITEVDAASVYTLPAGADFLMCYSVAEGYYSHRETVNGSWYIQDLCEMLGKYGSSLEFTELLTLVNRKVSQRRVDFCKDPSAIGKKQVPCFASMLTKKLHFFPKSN

Albumin = Albumin (Bos taurus, UniProt P02769); assay: Counterscreen for inhibitors of T-cell receptor (TCR)-CD3 interaction: Fluorescence-based biochemical high throughput dose response assay to identify inhibitors of T-cell receptor (TCR)-CD3 interaction using a TAMRA-labeled BSA probe.; assay type: functional
[12] = NIH-3T3 fibroblast cytotoxicity, dose response, cytotoxicity control, cell-based, fluorescence, Alamar Blue, secondary assay (AID 2327); assay type: functional;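 further: NIH-3T3 mouse fibroblasts cultured with fluconazole at 8 µg/mL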
[13] = fluconazole-exposed Candida albicans growth modulators – fluorescence, retest, confirmation (AID 2467); assay type: functional, cell-based
Large T antigen = Large T antigen (Simian virus 40, UniProt P03070); assay type: functional, Betapolyomavirus macacae;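 further: Confirmatory-stage PubChem screen for compounds that inhibit SV40 T antigen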
[14] = off-target signal loss in HeLa-CEM21 co-culture – HeLa F-luc CTL cells, cherry-picked, counter-screen for HIV-1 Env fusion inhibitor project, dose response (AID 652040); assay type: functional, cell-based;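 further: potency for signal decrease marking cytotoxic or nonspecific inhibition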
[15] = HIV-1 AD8 envelope cell-cell fusion blockers – cherry-pick, dose response (AID 652062); assay type: functional, cell-based;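 further: luciferase signal from cell-cell fusion driven by HIV-1 clade B AD8 Env; potency is for inhibitors of fusion seen as a drop in luminescence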
[16] = viability loss in CEM21 cells – cell-based, CellTiter-Glo luminescence, cherry-picked, cytotoxicity control for viral fusion inhibitor project, dose response (AID 652042); assay type: functional;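 further: potency for signal decrease meaning cytotoxicity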
[17] = blockers of HIV-1 ZM109 envelope-driven cell-cell fusion – HeLa effector, CEM target cells, luciferase, cherry-pick, dose response (AID 652058); assay type: functional, cell-based;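 further: luciferase signal from HIV-1 Env mediated cell-cell fusion of effector and target cells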
[18] = blockers of HIV-1 envelope-mediated cell-cell fusion – cherry-pick, dose response (AID 652057); assay type: functional, cell-based
[19] = CMV-driven luciferase expression suppression in HEK293 – cell-based, luminescence, dry powder, counter-screen for Pax8 inhibitor project, dose response (AID 743020); assay type: functional
[20] = general mammalian cell viability loss – inhibitor set, cherry-pick, set 2, cytotoxicity control for miR-122 modulator project, dose response (AID 720697); assay type: functional, cell-based
Fatty acid synthase = Fatty acid synthase (Homo sapiens, UniProt P49327); assay: inhibition of human FAS-TE enzyme activity – biochemical, endpoint fluorescence intensity, powder samples, SAR follow-up (AID 652164); assay type: functional
[21] = kidney cell line viability loss – HEK293T, luminescence plate reader, powder samples, set 4, cytotoxicity control, dose response (AID 651863); assay type: functional, cell-based; settings: HEK293
[22] = target: Endoplasmic reticulum aminopeptidase 1 (Homo sapiens, UniProt Q9NZ08); assay: inhibition of human ERAP1 enzyme activity – biochemical, cherry-pick, set 2, plate reader, dose response (AID 743314)
[23] = A Cell-Based Confirmatory Screen for Compounds that Inhibit VEEV, TC-83 (3).; assay type: functional
[24] = dual-tagged ARNT PAS-B bead signal quenchers – biochemical, dry powder, artefact control for ARNT/TACC3 disruptor project, dose response (AID 720564)
[25] = ATP-based viability loss in HeLa cells – cell-based, CellTiter-Glo luminescence, dry powder, set 2, cytotoxicity control, dose response (AID 720593); assay type: functional
[26] = Counterscreen for antagonists of the human trace amine associated receptor 1 (hTAAR1): Fluorescence-based cell-based high throughput dose response assay to identify nonselective Ga16 antagonists.; assay type: functional
[27] = target: T3, Trace amine-associated receptor 1 (Homo sapiens, UniProt Q96RJ0); assay: Counterscreen for antagonists of the human trace amine associated receptor 1 (hTAAR1): Fluorescence-based cell-based high throughput dose response assay to identify TAAR1 Agonists.; assay type: functional
T3 sequence (Q96RJ0 whole entry): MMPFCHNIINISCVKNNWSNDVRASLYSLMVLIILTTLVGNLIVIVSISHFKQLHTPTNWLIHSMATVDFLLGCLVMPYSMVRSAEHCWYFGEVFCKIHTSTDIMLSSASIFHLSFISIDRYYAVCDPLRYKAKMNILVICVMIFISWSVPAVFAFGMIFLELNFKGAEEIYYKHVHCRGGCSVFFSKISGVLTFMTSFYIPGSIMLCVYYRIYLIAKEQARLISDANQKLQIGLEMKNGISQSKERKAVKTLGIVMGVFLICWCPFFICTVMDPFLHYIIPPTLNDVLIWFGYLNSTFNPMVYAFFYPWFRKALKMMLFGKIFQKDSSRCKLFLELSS

[28] = target: T3, Trace amine-associated receptor 1; assay: Fluorescence-based cell-based high throughput dose response assay to identify antagonists of the human trace amine associated receptor 1 (TAAR1).; assay type: functional
[29] = Counterscreen for […] of the human trace amine associated receptor 1 (TAAR1): Fluorescence-based cell-based high throughput dose response assay to identify nonselective Ga16 agonists.; assay type: functional

Cc1cccc(NC(=O)c2ccc(S(=O)(=O)N3CCCCC3)cc2)n1
AC50 [1]: > 52 µM (inactive)

CCCCN=C(S)NNC(=O)c1csc(C)c1C
IC50 [2]: > 122 µM (inactive)

CCC(Sc1nc2c(c(=O)[nH]1)CCC2)C(=O)Nc1cccc(OC)c1 (centres undefined)
Ki (fMet-Leu-Phe receptor): 35.5 µM (inactive)

COc1ccccc1NS(=O)(=O)c1cccc(NC(=O)Nc2cccc(Cl)c2)c1
EC50 [3]: > 60 µM (not active) | IC50 [4]: 12 µM (inactive) | EC50 [5]: 2.16 µM (active) | IC50 [6]: > 69.5 µM (inactive) | IC50 [7]: 41.1 µM (inactive) | IC50 [8]: 15.7 µM (inactive) | IC50 [9]: 12 µM (inactive)

COc1ccc(C(=O)c2cc([N+](=O)[O-])ccc2N2CCOCC2)cc1
AbsAC35_uM [10]: 60.09 µM | AC50 (Paired box protein Pax-8): 3.21 µM (active) | EC50 (BJ): < 0.104 µM (active)

Cc1cc(NC(=O)CCC(=O)N(c2ccccc2)C(C(=O)NC2CCCC2)c2cccs2)no1 (centres undefined)
IC50 (Major prion protein): 16.2 µM (inactive) | IC50 (cells): > 138 µM (inactive)

CN[C@H]1C[C@H]2c3[nH]c4ccc(-c5ccc(OC)cc5)cc4c3CCN2C(=O)[C@H]1[C@H](C)O
AC50 [11]: 15.8 µM (active)

C/C(=N/NC(=O)c1cc(O)c(O)c(O)c1)c1ccc([N+](=O)[O-])cc1
AC50 (Caspase-6): 27.5 µM (active) | IC50 (Albumin): > 94.1 µM (inactive) | EC50 [12]: > 160 µM (inactive) | EC50 [13]: > 38 µM (not active) | IC50 (Large T antigen): 8.68 µM (active)

C[C@H]1CNC(=O)c2c(C(=O)N3CCN(C(=O)OC(C)(C)C)CC3)ncn21
AC50 [14]: 2.18 µM (active) | AC50 [15]: 4.38 µM (active) | AC50 [16]: 47.9 µM (active) | AC50 [17]: 3.02 µM (active) | AC50 [18]: 0.805 µM (active)

C[C@@H]1CCCCO[C@@H](CN(C)C(=O)Nc2ccc(F)cc2)[C@H](C)CN([C@@H](C)CO)C(=O)c2cc(NC(=O)Nc3ccc(C(F)(F)F)cc3)ccc2O1
AC50 (Paired box protein Pax-8): 4.11 µM (active) | AC50 [19]: 67.7 µM (active)

CCC(=O)NC[C@@H]1[C@@H](c2ccc(C3=CCCC3)cc2)[C@@H](CO)N1C(C)=O
AC50 [20]: 9.42 µM (active)

CC(=O)Nc1nc(-c2ccc(S(=O)(=O)N3CCSCC3)cc2)cs1
IC50 (Fatty acid synthase): > 80 µM (inactive)

COC(=O)C(C(=O)OC)c1cc(NS(=O)(=O)c2c(C)cc(C)cc2C)c2ccccc2c1O
AC50 [21]: 27 µM (active)

COC(=O)[C@H]1[C@H](CO)[C@H]2Cn3c(ccc(-c4ccncc4)c3=O)[C@H]2N1Cc1ccccc1F
AC50 [22]: 10.2 µM (active)

CC(C)N1CCN(Cc2nc3ccc([N+](=O)[O-])cc3c(=O)n2-c2ccccc2F)CC1
IC50 [23]: 3.13 µM (active)

O=C(Nc1nc(-c2ccncc2)cs1)c1cccc(S(=O)(=O)N2CCOCC2)c1
AC50 [24]: 110 µM (active) | AC50 [25]: > 52 µM (inactive)

Cc1cc(/C=N\NC(=O)CC(=O)NC2CCCCC2)c(C)n1-c1ccc(Cl)c(Cl)c1
IC50 [26]: 15.3 µM (inactive) | EC50 [27]: 7.54 µM (active) | IC50 [28]: 0.915 µM (active) | EC50 [29]: > 29.9 µM (inactive)
